This note sets out measurements from US10758478B2, “Active agent loaded uniform, rigid, spherical, nanoporous calcium phosphate particles and methods of making and using the same” (Laboratory Skin Care, Inc., priority 2008, dated 2020).

Series [1] can be described thus: Solubility of salicylic acid (water, ethanol and PEG). Format: physicochemical.
Series [2] can be described thus: Binding capacity to hydroxyapatite. Format: physicochemical.

Regarding `O=C(O)c1ccccc1O` [Salicylic acid, 2-Hydroxybenzoic acid], the “solubility in ethanol and PEG (poly ethylene glycol)” value in series [1] (ethanol and PEG) is reported as “up to 30%”. The solubility in water entry in series [1] (water) is “water insoluble”. The “binding capacity to hydroxyapatite” value in series [2] was at most 1 mg.
